In assay [1] the test system is Histone H3 Citrullination in Neutrophils. Put plainly: Citrullination ELISA (Citrullinated Histone H3) in calcium ionophore stimulated neutrophils. In kind it is cell-based. Particulars: Neutrophil; human neutrophils, 25 μM calcium ionophore, CitH3 ELISA. The procedure, abridged: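 Freshly isolated human donor neutrophils in RPMI with 2% BSA and 1 mM CaCl2 were pre-incubated 30 min with compound (10, 1, 0.1 μM), then stimulated 30 min with 25 μM calcium ionophore. After S7 nuclease digestion, lysates were assayed by citrullinated histone H3 ELISA (450 nm); IC50 from sigmoidal fits.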
A general note: In an ELISA, binding on a coated surface is turned into a signal by an enzyme label.

Assay [2] deals with NETosis in human neutrophils. Put plainly: NETosis assay (SYTOX green, flow cytometry). The following applies: Neutrophil, two independent NETosis assays, read-out: Average percent inhibition. Format: cell-based. On the procedure: Neutrophils were isolated according to the EasySep Direct Human Neutrophil Isolation Kit. In short, 50 mL of blood sample was drawn in a vacutainer containing K2EDTA from a healthy donor. To the whole blood, the isolation cocktail of 50 μL/mL was added. Then, in the next step 50 μL/mL of RapidSpheres™ was added to the sample. The sample was mixed evenly with the pipette and incubated for 10 minutes at room temperature. After incubation, PBS containing 1 mM EDTA was added at the ratio of 1:1 to the blood. Then the sample tube was incubated for 10 minutes. The enriched cell suspension was transferred into a new tube and RapidSpheres™ were added at 50 μL/mL to this suspension, mixed and incubated for 10 minutes at room temperature. At this step, the enriched cell suspension was carefully collected as a clear fraction into a fresh tube. Then, previous tube was replaced with the fresh tube containing enriched cell suspension. After the final separation, the clear solution of enriched cell suspension was carefully transferred to fresh tube which was ready to use for the experiment. These cells were then subjected to wash twice with plain RPMI 1640 media without Fetal Bovine Serum (FBS) and centrifuged at 1500 rpm for 5 minutes at room temperature. Cell counts were performed on each sample by Invitrogen cell counter. After the cell count, cell density was adjusted according to the experiment and re-suspended in complete RPMI media containing RPMI1640, 2% BSA and 1 mM CaCl2.
Freshly isolated neutrophils from human donor were seeded at a density of 0.5×10^6 cells in 400 μL cell suspension/well in a 24-well plate and cells were pre-incubated with the compound for 30 minutes by adding 50 μL of the 10× concentration to achieve the final 1× concentration of compound (10 μM, 1 μM and 0.1 μM). 1% DMSO was added in control wells. […]
Average percent inhibition for compound 143 was calculated as 2% at 0.1 μM, 30% at 1 μM and 85% at 10 μM in two independent NETosis assays using human neutrophils.
(Flow cytometry measures light scatter and fluorescence of single cells or particles in a stream.)

Assay [3] deals with silica induced lung fibrosis. Put plainly: Silica induced pro-fibrotic lung model. Format: in vivo, C57BL/6 female mice. Particulars: 50 mg/kg PO, BID, day 7 to 11, therapeutic; silica mice. The procedure: The instillation of silica into the murine lung results in the development of fibrotic nodules that resemble simple silicotic nodular fibrosis, which develop in humans following some occupational exposures to dust and particulate aerosols. Silica can be delivered to rodents via aerosolization, intratracheal administration or oropharyngeal aspiration. C57BL/6 female mice at an age of 6-8 weeks were instilled with silica particles (2.5 mg/mouse) by non-surgical intratracheal (IT) method. The day of silica instillation was defined as day 0. Test compound was administered twice daily and standard of care was dosed once daily from day 7 to 11 for therapeutic intervention. Animals were monitored and evaluated for their clinical signs and body weight loss. Animals were euthanized on day 11 and the lungs were weighed and biomarkers were analyzed in lung.

For the molecule `N[C@@H]1CCCN(C(=O)c2cc3c4c(c2)nc(-c2cc5cccc(Cl)c5n2CC2CC2)n4CCO3)C1` [Compound 143, (R)-(3-aminopiperidin-1-yl)(2-(7-chloro-1-(cyclopropylmethyl)-1H-indol-2-yl)-3,4-dihydro-5-oxa-1,2a-diazaacenaphthylen-7-yl)methanone], in assay [1], the IC50 lay within 100 to 1000 nM. In assay [2] (at 0.1 μM), the inhibition at 0.1 µM was 2%. Also, the inhibition at 1 µM in assay [2] (at 1 μM) was 30%. For the same molecule, in assay [2] (at 10 μM), the inhibition at 10 µM came out at 85%. Further, in assay [3], the Fibronectin level result is given as “significant decrease” and the Lung weight entry is reported as “significant decrease”.

For orientation: IC50 means the midpoint of a concentration-inhibition curve. For orientation: inhibition means the percentage by which the read-out fell short of the control.
